Results on 24 compounds are retold here after ChEMBL document CHEMBL5335833, “Asperustins A-J: Austocystins with Immunosuppressive and Cytotoxic Activities from Aspergillus ustus NRRL 5856” (J Nat Prod, 2024).

The nature of data set [1]: Selectivity index, ratio of CC50 for cytotoxicity against mouse T lymphocytes to IC50 for Immunosuppressive activity in BALB/c mouse splenocytes assessed as reduction in […]-induced mouse B-lymphocytes proliferation. The data set is classed as toxicity, cell-based.
For data set [2], the system named is Splenocyte. Put plainly: Immunosuppressive activity in BALB/c mouse splenocytes assessed as reduction in […]-induced mouse B-lymphocyte proliferation. The data set is classed as functional, cell-based.
A short description of data set [3]: Cytotoxicity against mouse B-lymphocytes. The data set is classed as toxicity, cell-based, B-cell.
Data set [4] concerns Splenocyte. Nature of the data set: Immunosuppressive activity in BALB/c mouse splenocytes assessed as reduction in ConA-induced mouse T-lymphocytes proliferation. The data set is classed as functional, cell-based.
A short description of data set [5]: Selectivity index, ratio of CC50 for cytotoxicity against mouse T lymphocytes to IC50 for Immunosuppressive activity in BALB/c mouse splenocytes assessed as reduction in ConA-induced mouse T-lymphocytes proliferation. The data set is classed as toxicity, cell-based.
Data set [6] in a line: Cytotoxicity against mouse T-lymphocytes. The data set is classed as toxicity, cell-based, T-cell.
The subject of data set [7] is Splenocyte. Nature of the data set: Immunosuppressive activity in LPS-induced BALB/c mouse splenocyte assessed as reduction in IL-6 cytokine level incubated for 48 hrs by ELISA assay. The data set is classed as functional, cell-based. The conditions noted are these: dose 0.2-5 µM. In general terms: In an ELISA, binding on a coated surface is turned into a signal by an enzyme label.

The next data set relates to MCF7. Put plainly: Cytotoxicity against human MCF7 cells. The data set is classed as functional, cell-based.

A value given as a limit tells only on which side of the number the result lay.

For orientation: IC50 means the concentration needed to halve the response being measured. By CC50 is commonly meant the concentration that lowers cell viability or growth by half. For `CO[C@@H]1C[C@H]2C3=C(O)C4C(=O)c5c(O)ccc(CCC(C)(C)O)c5OC4C=C3O[C@H]2O1` (stereo partly drawn), the selectivity ratio amounted to 2.5 in data set [1] and 5.7 in data set [5]. For the same compound, the figures for the IC50 in the data set on Splenocyte [2] and in the data set with Splenocyte [4] were 4.8 µM and 2.1 µM, respectively. Moreover, the CC50 in data set [3] and in data set [6] was 12 µM throughout.

Regarding `C[C@]12CCC[C@H](O1)c1c(cc3c(c1O)C(=O)c1c(O)cc(O)cc1C3=O)O2`, the selectivity ratio in data set [1] was over 1.8; in data set [5], over 8.3. Also, the IC50 was found to be 22 µM with Splenocyte [2] and 4.8 µM in the data set on Splenocyte [4]. The CC50 in data set [3] and in data set [6] was over 40 µM in each case.

Regarding `CC(C)=CCc1ccc(O)c2c1OC1C=C3O[C@H]4OC=C[C@@]4(O)C3=C(O)C1C2=O` (stereo partly drawn), the selectivity ratio in data set [1] worked out at 0.94; in data set [5], 1.1. The results for the IC50 in the data set on Splenocyte [2] and with Splenocyte [4] were 16 µM and 14 µM, respectively. The CC50 in data set [3] and in data set [6] was 15 µM in each case.

As to `CCCCC[C@H](OC)c1c(O)cc2c(c1O)C(=O)C1C(O)=CC(O)=CC1C2=O` (stereo partly drawn), the half-maximal inhibitory concentration (IC50) with Splenocyte [2] and with Splenocyte [4] was over 40 µM throughout. The CC50 in data set [3] and in data set [6] was over 40 µM throughout.

For `CO[C@H]1C[C@H]2C3=C(O)C4C(=O)c5c(O)ccc(CCC(C)(C)O)c5OC4C=C3O[C@H]2O1` (stereo partly drawn), the selectivity ratio amounted to 1.9 in data set [1] and 14 in data set [5]. In addition, the IC50 in the data set with Splenocyte [2] was 7.9 µM; in the data set on Splenocyte [4], 1.1 µM. Also, the CC50 in data set [3] and in data set [6] was 15 µM in each case. In the data set with Splenocyte [7], the Activity entry was “Dose-Dependent Effect”.

For the compound `COc1c(Cl)ccc2c1C(=O)C1C(O)=C3C(=CC1O2)O[C@H]1OC=C[C@@]31O` (stereo partly drawn), the IC50 with Splenocyte [2] and with Splenocyte [4] was over 40 µM in each case. In addition, the CC50 in data set [3] and in data set [6] was over 40 µM each time.

Take `CC(C)(O)C[C@H](O)c1ccc(O)c2c1OC1C=C3O[C@H]4OC=C[C@H]4C3=C(O)C1C2=O` (stereo partly drawn): the selectivity ratio in data set [1] was determined as 1.1; in data set [5], 6.8. Moreover, the figures for the IC50 in the data set on Splenocyte [2], in the data set on MCF7 and in the data set with Splenocyte [4] were 7.5 µM, 0.46 µM and 1.2 µM, respectively. For the same compound, the CC50 in data set [3] and in data set [6] was 8.1 µM throughout.

On to `CC(C)(O)C[C@H](O)c1ccc(O)c2c1OC1C=C3O[C@H]4OC=C[C@@]4(O)C3=C(O)C1C2=O` (stereo partly drawn), for which the selectivity ratio in data set [1] worked out at 1.3; in data set [5], 17. Besides, the figures for the IC50 with Splenocyte [2], in the data set on MCF7 and in the data set on Splenocyte [4] were 12 µM, 0.46 µM and 0.93 µM, respectively. For the same compound, the CC50 in data set [3] and in data set [6] was 16 µM each time. In addition, the Activity result in the data set with Splenocyte [7] is “Dose-Dependent Effect”.

For `CCCCC[C@H](O)c1c(O)cc2c(c1O)C(=O)C1C(O)=CC(O)=CC1C2=O` (stereo partly drawn), the selectivity ratio in data set [1] was over 2.4. Also, the values for the IC50 in the data set on Splenocyte [2] and with Splenocyte [4] were 17 µM and over 40 µM, respectively. The CC50 in data set [3] and in data set [6] was over 40 µM each time.

For the compound `COC1=C2C(=CC3Oc4ccc(Cl)c(OC)c4C(=O)C13)O[C@H]1O[C@@H](OC)C[C@@H]21` (stereo partly drawn), the selectivity ratio in data set [1] was over 3.6; in data set [5], over 1.5. Moreover, the results for the IC50 with Splenocyte [2] and in the data set with Splenocyte [4] were 11 µM and 27 µM, respectively. In addition, the CC50 in data set [3] and in data set [6] was over 40 µM each time.

Turning to `COC1=C2C(=CC3Oc4c(OC)cc(Cl)c(OC)c4C(=O)C13)O[C@H]1O[C@@H](O)C[C@@H]21` (stereo partly drawn), the selectivity ratio is 3.1 in data set [1] and 2.8 in data set [5]. Moreover, the IC50 in the data set on Splenocyte [2] worked out at 10 µM; in the data set on Splenocyte [4] it was 11 µM. Also, the CC50 in data set [3] and in data set [6] was 31 µM throughout.

As to `COC1=C2C(=CC3Oc4cccc(O)c4C(=O)C13)O[C@H]1OC=C[C@@]21O` (stereo partly drawn), the IC50 in the data set with Splenocyte [2] and in the data set with Splenocyte [4] was over 40 µM each time. For the same compound, the cytotoxic concentration (CC50) in data set [3] and in data set [6] was over 40 µM each time.

`COC1=C2C(=CC3Oc4ccc(Cl)c(OC)c4C(=O)C13)O[C@H]1O[C@H](OC)C[C@@H]21` (stereo partly drawn): the selectivity ratio was over 7.8 in data set [1] and over 3.6 in data set [5]. Besides, the IC50 in the data set on Splenocyte [2] worked out at 5.1 µM; in the data set with Splenocyte [4] it was 11 µM. Further, the CC50 in data set [3] and in data set [6] was over 40 µM each time.

As to `CO[C@@H]1C[C@@]2(O)C3=C(O)C4C(=O)c5c(O)ccc(CCC(C)(C)O)c5OC4C=C3O[C@H]2O1` (stereo partly drawn), the figures for the selectivity ratio in data set [1] and in data set [5] were 2 and 5.9, respectively. Moreover, the IC50 is 3.8 µM with Splenocyte [2] and 1.3 µM in the data set on Splenocyte [4]. Besides, the CC50 in data set [3] and in data set [6] was 7.7 µM throughout.

Turning to `COC1=C2C(=CC3Oc4c(OC)cc(Cl)c(OC)c4C(=O)C13)O[C@H]1OC=C[C@@H]21` (stereo partly drawn), the selectivity ratio in data set [1] came out at 0.92; in data set [5], 1.7. Also, the IC50 with Splenocyte [2] was 13 µM; with Splenocyte [4], 7.1 µM. Moreover, the cytotoxic concentration (CC50) in data set [3] and in data set [6] was 12 µM throughout.

Consider `COc1c(C)c2c(c(O)c1C/C=C(\C)CCC(=O)OCCN1CCOCC1)C(=O)OC2` [MYCOPHENOLATE MOFETIL], for which, in the data set with Splenocyte [2], the IC50 came to 0.21 µg/mL.

On to `CC(C)(O)CCc1ccc(O)c2c1OC1C=C3O[C@H]4OCC[C@H]4C3=C(O)C1C2=O` (stereo partly drawn), for which the selectivity ratio in data set [1] was found to be 1.4; in data set [5], 5.2. The IC50 with Splenocyte [2] worked out at 3.6 µM; in the data set with Splenocyte [4] it was 1 µM. For the same compound, the CC50 in data set [3] and in data set [6] was 5.2 µM each time.

For `COC1=C2C(=CC3Oc4ccc(Cl)c(OC)c4C(=O)C13)O[C@H]1O[C@H](OC(C)=O)C[C@@H]21` (stereo partly drawn), the results for the selectivity ratio in data set [1] and in data set [5] were 1.4 and 1.8, respectively. Also, the IC50 stood at 20 µM in the data set on Splenocyte [2] and 16 µM with Splenocyte [4]. Besides, the CC50 in data set [3] and in data set [6] was 28 µM in each case.

As for `COc1cc(OC)c2c(c1)C(=O)C1C=C3O[C@@]4(C)CC[C@H](O)[C@H](O4)C3=C(O)C1C2=O` (stereo partly drawn), the selectivity ratio in data set [1] is over 5.7. For the same compound, the IC50 in the data set on Splenocyte [2] was 7 µM; in the data set on Splenocyte [4], over 40 µM. Besides, the CC50 in data set [3] and in data set [6] was over 40 µM each time.

In the case of `COc1ccc(CCC(C)(C)O)c2c1C(=O)C1C(O)=C3C(=CC1O2)O[C@H]1OC=C[C@@]31O` (stereo partly drawn), the selectivity ratio came to 1.7 in data set [1] and 14 in data set [5]. For the same compound, the results for the IC50 with Splenocyte [2], in the data set with MCF7 and in the data set with Splenocyte [4] were 8.4 µM, 0.46 µM and 1 µM, respectively. The CC50 in data set [3] and in data set [6] was 14 µM throughout. In addition, the Activity result in the data set with Splenocyte [7] is “Dose-Dependent Effect”.

Consider `CC(C)(O)CCc1ccc(O)c2c(=O)c3c(O)c4c(cc3oc12)O[C@H]1OC=C[C@@]41O` [AUSTOCYSTIN D], for which the values for the selectivity ratio in data set [1] and in data set [5] were 2 and 4.9, respectively. For the same compound, the values for the IC50 in the data set with Splenocyte [2], with MCF7 and in the data set with Splenocyte [4] were 4 µM, 0.46 µM and 1.6 µM, respectively. Besides, the CC50 in data set [3] and in data set [6] was 7.8 µM in each case.

`COC1=C2C(=CC3Oc4c(CCC(C)(C)O)ccc(O)c4C(=O)C13)O[C@H]1OC=C[C@@H]21` (stereo partly drawn): the selectivity ratio is 2.9 in data set [1] and 4.3 in data set [5]. Further, the IC50 in the data set on Splenocyte [2] turned out to be 5.8 µM; with MCF7 it was 0.46 µM; in the data set with Splenocyte [4] it was 4 µM. Moreover, the CC50 in data set [3] and in data set [6] was 17 µM in each case.

As for `O=C1c2c(O)cccc2OC2C=C3O[C@H]4OC=C[C@@]4(O)C3=C(O)C12` (stereo partly drawn), the IC50 was over 40 µM in the data set on Splenocyte [2] and 9.4 µM with Splenocyte [4]. The CC50 in data set [3] and in data set [6] was over 40 µM throughout. Moreover, in data set [5], the selectivity ratio is over 4.2.

With `CO[C@H]1C[C@@]2(O)C3=C(O)C4C(=O)c5c(O)ccc(CCC(C)(C)O)c5OC4C=C3O[C@H]2O1` (stereo partly drawn), the selectivity ratio was 2.1 in data set [1] and 7.4 in data set [5]. The IC50 with Splenocyte [2] came to 4.3 µM; with Splenocyte [4], 1.2 µM. Besides, the CC50 in data set [3] and in data set [6] was 8.9 µM throughout.
